Here are results for 15 molecules from publication PMC9546217, “Exploring novel nitrofuranyl sulfonohydrazides as anti‐Leishmania and anti‐cancer agents: Synthesis, in vitro efficacy and hit identification” (Chemical Biology & Drug Design, 2022).

The test system of data set [1] is L. donovani strain 1S promastigotes. Nature of the data set: Antipromastigote assay (resazurin). The class given is cell-based. Conditions: L. donovani 1S, read-out: 1S IC50 ± SD, Promastigote. The procedure:
(§1) The antipromastigote activity of synthesized compounds was evaluated as described previously by Mangwegape et al. ([2021]) using three strains of L. donovani (1S (MHOM/SD/62/1S) and 9515 (MHOM/IN/95/9515)) and L. major (IR‐173 [MHOM/IR/−173]). The assay method is available in the Supinfo S1.
(§2) The antipromastigote activity of synthesized compounds was evaluated using a modified, resazurin-based method of Kulshrestha et al. ^2 and Siqueira-Neto et al. ^3 and on three Leishmania strains. Leishmania donovani (strains 1S (MHOM/SD/62/1S) and 9515 (MHOM/IN/95/9515)) and L. major (strain IR-173 (MHOM/IR/-173)) promastigotes were cultured in M199 with Hank's salts and 0.68 mM L-glutamine (Sigma Aldrich) supplemented with 50 U/mL Penicillin/Streptomycin solution (Lonza), 4.2 mM sodium bicarbonate, 25 mM Hepes, 10% fetal bovine serum, 0.25% hemin, 0.1% biotin, and 10 mM adenine (Sigma Aldrich) and the pH adjusted to 7.3 – 7.4. The promastigotes were maintained at 25 °C.
(§3) Amphothericin B (10 μM) served as the standard drug and growth medium without parasites served as the blank. The plates were incubated for 48 hours at 25 °C in humidified atmosphere. After incubation, 50 μL of resazurin solution (0.01% in PBS) was added to each well and the plates were further incubated at 25 °C in the dark for 24 hours. Absorbance was measured at 570 nm and 600 nm using the Thermofisher Scientific GO Multiscan plate reader. Data analysis was performed for each biological replicate using SkanIt 4.0 Research Edition software. Background absorbance of resazurin (600 nm) was subtracted from the absorbance values of resorufin (570 nm). The mean absorbance calculated and the percentage growth inhibition and cell viability were determined by the following equations: […]
(§4) The IC50 and Z-score were determined for each compound’s three biological replicates using the cell viability % values and GraphPad Prism 5. The mean IC50 of the biological replicates with standard deviation (SD) served as the final IC50 of each compound.

The subject of data set [2] is L. donovani strain 9515 promastigotes. Nature of the data set: Antipromastigote assay (resazurin). The class given is cell-based. Conditions: L. donovani 9515, read-out: 9515 IC50 ± SD, Promastigote. The procedure: as §1, §2, §3, §4
A general note: The colour change of resazurin is a common sign of viable cells or microbes.

Data set [3] deals with L. major strain IR‐173 promastigotes. Nature of the data set: Antipromastigote assay (resazurin). The data set is classed as cell-based. Conditions: L. major IR‐173, read-out: Antileishmanial activity, IC50 ± SD, Promastigote. The procedure: as §1, §2, §3, §4
The test system of data set [4] is L. donovani strain 1S amastigotes. The data set is described as follows: Anti-amastigote assay (intramacrophage, THP-1 host, resazurin). The class given is cell-based. Conditions: L. donovani 1S, read-out: 1S IC50 ± SD, Amastigote. The procedure:
(§5) The activities of synthesized compounds against the intramacrophage parasites of the three Leishmania strains were evaluated using a modified, resazurin‐based method (Jain et al., [2012]; Njanpa et al., [2021]). Suspension cultures of human acute monocytic leukemia (THP‐1) cells were maintained in RPMI‐1640 medium (Sigma Aldrich) supplemented with 10% FBS and 1% penicillin–streptomycin, at 37°C and 5% CO2 in a humidified atmosphere. Duplicate 96‐well plates (for respective anti‐amastigote and cytotoxicity assays) were seeded with 200 μl of a 2.5 × 10^5 cells/ml suspension treated with 25 ng/ml phorbol 12‐myristate 13‐acetate (PMA), followed by 48‐h incubation to promote differentiation into adherent macrophages.
(§6) For the anti‐amastigote assay, differentiated plates were carefully washed with PBS, followed by the addition of 200 μl of stationary phase promastigotes in RPMI 1640 medium with 2% FBS. An MOI of 30:1 was used for all three Leishmania strains. The parasite‐treated plates were incubated for 24 h at 32°C (L. major) or 37°C (L. donovani) and 5% CO2 to promote infection of the macrophages. […] Blanks were represented by growth medium without cells, as well as parasite‐free THP‐1 cells. The treated plates were incubated for 72 h.
(§7) After incubation, the plates were gently washed three times with PBS to remove any remaining extracellular parasites. The wells were then treated with 20 μl of 0.05% sodium dodecyl sulfate in PBS for 30 s to lyse the host macrophages. Lysis was terminated by adding 180 μl promastigote growth medium with 10% FBS. To initiate the resazurin assay, 10 μl of resazurin solution (0.025% in PBS) was added to all wells and the plates were incubated for 24 h at 32°C (L. major) or 37°C (L. donovani) and 5% CO2. Absorbance measurements, calculations, and IC50 determinations were performed as described for the antipromastigote assay (Supinfo S1).

In data set [5] the test system is L. donovani strain 9515 amastigotes. The description is as above. The data set is classed as cell-based. Conditions: L. donovani 9515, read-out: 9515 IC50 ± SD, Amastigote. The procedure:
as §5, §6, §7

Data set [6] deals with L. major strain IR‐173 amastigotes. Described as above. The class given is cell-based. Conditions: read-out: Antileishmanial activity, IC50 ± SD, Amastigote. How it is done:
as §5, §6, §7

The subject of data set [7] is A375 melanoma cells. The data set is described as follows: Anticancer assay (resazurin). The data set is classed as cell-based, human. Conditions: n = 3, read-out: Anticancer activity, IC50 ± SD, A375. How it is done:
(§8) The anticancer activities of synthesized compounds were evaluated using a resazurin‐based assay (Czekanska, [2011]). Accordingly, a screening method similar to that of the cytotoxicity assay was used to screen for anticancer activity, using human melanoma (A375), promyelocytic leukemia (Clone 15 HL‐60), lung cancer (A549), and breast cancer (MCF7) cells. The culture and assay methods are provided in the Supinfo S1.
(§9) The potential anticancer activities of synthesized compounds were screened using the resazurin assay. ^5 Breast adenocarcinoma (MCF7, ATCC® HTB-22™) and human melanoma (A375, ATCC® CRL-1619™) cells were cultured in Hyclone Dulbecco's modified Eagle’s medium with high glucose (Separations) supplemented with 10 % fetal bovine serum (FBS) (Thermofisher Scientific) and 1 % L-glutamine, penicillin-streptomycin and non-essential amino acids (Lonza). Human lung carcinoma (A549, ATCC®, CCL-185™) cells were cultured in Ham’s F12K medium supplemented with 10% FBS and 1% L-glutamine, penicillin-streptomycin and non-essential amino acids. Human promyelocytic leukemia (Clone 15 HL-60, ATCC® CRL-1946™) cells were cultured in RPMI-1640 medium (Sigma Aldrich) supplemented with 10% FBS and 1% penicillin-streptomycin. The cell lines were maintained in a humidified atmosphere at 37 °C and 5% CO2.
(§10) For the resazurin assay, 96 well plates were prepared with 100 μL of 100 000 cells/mL MCF7 cell suspension, 100 μL of 50 000 cells/mL A375 cell suspension, 100 μL of 25 000 cells/mL A549 cell suspension, or 50 μL of 50 000 cells/mL HL-60 cell suspension. The MCF7, A375 and A549 cell plates were incubated for 24 hours to allow adherence of the cells to the plate surface, after which the growth medium is replaced with 100 μL medium containing compounds. […] The cell lines were treated with: (i) parthenolide (Sigma Aldrich) (positive control); (ii) growth medium and solvent (negative control to compensate for possible solvent effects); (iii) growth medium and experimental compound solutions. […] Blanks contained growth medium without cells. The treated plates were incubated for 48 hours.
(§11) To initiate the resazurin assay, 50 μL of sterile-filtered resazurin sodium salt (Sigma Aldrich) solution (0.01 % in PBS) was added and the plates incubated for 2 hours (MCF7, A375 and A549 cells) or 24 hours (HL-60 cells). Absorbance was measured at 570 and 600 nm using the Thermofisher Scientific GO Multiscan plate reader. Data analysis was performed for each biological replicate using SkanIt 4.0 Research Edition software. Further data analysis, calculations and IC50 determinations were identical to that of the antileishmanial and cytotoxicity assays.
(§12) For the final IC50 of each compound, the mean IC50 of the biological replicates were calculated with standard deviation (SD).

Data set [8] concerns Clone 15 HL‐60 promyelocytic leukemia cells. The data set is described as follows: Anticancer assay (resazurin). The class given is cell-based, human. Conditions: for IC50: read-out: Anticancer activity, IC50 ± SD, Clone 15 HL‐60. How it is done: as §8, §9, §10, §11, §12
Where [9] appears, read: Leishmania major, THP-1, L. major IR‐173.

Where two headings read alike, the source gives them in different places. Bounds are passed on as bounds.

`CC(=O)Nc1ccc(S(=O)(=O)NN)cc1` [1 g, N-[4-(Hydrazinylsulfonyl)phenyl]acetamide]: the melting point was in the range of 175 to 178 °C.
On the same count and under the same terms, the result for `NNS(=O)(=O)c1ccc(I)cc1` [1a, 4-Iodobenzenesulfonohydrazide] reads 160 to 162 °C; that for `NNS(=O)(=O)c1ccc([N+](=O)[O-])cc1` [1b, 4-Nitrobenzenesulfonohydrazide], 149 to 152 °C; that for `Cc1cc(C)c(S(=O)(=O)NN)c(C)c1` [1e, 2,4,6-Trimethylbenzenesulfonohydrazide], 110 to 113 °C.
Still for that read-out and setting: the result for `NNS(=O)(=O)c1ccc(-c2ccccc2)cc1` [1h, (1,1'-Biphenyl)-4-sulfonohydrazide] reads 180 to 183 °C; that for `NNS(=O)(=O)C1(F)C=CC(c2ccccc2)=CC1` (stereo not drawn) [1i, 4-Fluoro-(1,1'-biphenyl)-4-sulfonohydrazide], 164 to 169 °C.
`NNS(=O)(=O)C1(Cl)C=CC(c2ccccc2)=CC1` (stereo not drawn) [1j, 4-Chloro-(1,1'-biphenyl)-4-sulfonohydrazide] showed a melting point of 150 to 153 °C.
The same measure, in the same setting: the result for `COC1(S(=O)(=O)NN)C=CC(c2ccccc2)=CC1` (stereo not drawn) [1k, 4-Methoxy-(1,1'-biphenyl)-4-sulfonohydrazide] reads 173 to 175 °C.
Turning to `O=[N+]([O-])c1ccc(/C=N/NS(=O)(=O)c2ccc(I)cc2)o1` [2a, (E)-4-Iodo-N'-[(5-nitrofuran-2-yl)methylene]benzenesulfonohydrazide], the 50% inhibitory concentration (IC50) in [1] (Leishmania donovani) is > 10 µM; in data set [2] (Leishmania donovani), > 10 µM; in [3] (Leishmania major), > 10 µM; in [4] (Leishmania donovani, THP-1), > 10 µM; in data set [5] (Leishmania donovani, THP-1), > 10 µM; in data set [6] (setting [9]) it was > 10 µM. For the same molecule, the IC50 in [7] (Homo sapiens, A-375) was > 10 µM; in [8] (Homo sapiens, HL-60, n = 3) it was > 10 µM.
Regarding `O=[N+]([O-])c1ccc(S(=O)(=O)N/N=C/c2ccc([N+](=O)[O-])o2)cc1` [2b, (E)-4-Nitro-N'-[(5-nitrofuran-2-yl)methylene]benzenesulfonohydrazide], the IC50 in data set [1] (Leishmania donovani) was > 10 µM; in [2] (Leishmania donovani), > 10 µM; in [3] (Leishmania major), > 10 µM; in data set [4] (Leishmania donovani, THP-1), > 10 µM; in [5] (Leishmania donovani, THP-1) it was > 10 µM; in [6] (setting [9]), > 10 µM. The IC50 was > 10 µM in data set [7] (Homo sapiens, A-375); < 10 µM in [8] (Homo sapiens, HL-60, n = 3); 9.32 ± 0.9 µM in data set [8] (n = 3). Moreover, in data set [8] (cutoff 50% growth inhibition at 10 μM), the “Preliminary screening, growth inhibition, Clone 15 HL‐60” value is on record as “qualified”.
On to `CC(=O)Nc1ccc(S(=O)(=O)N/N=C/c2ccc([N+](=O)[O-])o2)cc1` [2g, (E)-N-{4-{ {2-[(5-nitrofuran-2-yl)methylene]hydrazinyl}sulfonyl}phenyl}acetamide], for which the 50% inhibitory concentration (IC50) in data set [1] (Leishmania donovani) was > 10 µM; in data set [3] (Leishmania major), > 10 µM; in data set [4] (Leishmania donovani, THP-1) it was > 10 µM; in [6] (setting [9]), > 10 µM; in data set [7] (Homo sapiens, A-375) it was > 10 µM.
As for `O=C1OCCN1/N=C/c1ccc([N+](=O)[O-])o1` [FZD, furazolidone, reference compound], the IC50 was found to be 0.32 µM in data set [1] (Leishmania donovani); 0.28 ± 0.04 µM in data set [2] (Leishmania donovani); 0.34 ± 0.03 µM in data set [3] (Leishmania major); 1.94 µM in data set [4] (Leishmania donovani, THP-1); 2.8 ± 0.5 µM in data set [6] (setting [9]).
As to `C=C1C(=O)O[C@H]2[C@H]1CC/C(C)=C/CC[C@@]1(C)O[C@@H]21` [PN, parthenolide, reference compound], the concentration for half-maximal inhibition (IC50) in data set [7] (Homo sapiens, A-375) worked out at 5.13 ± 0.81 µM; in data set [8] (Homo sapiens, HL-60, n = 3) it was 1.85 ± 0.15 µM.
For the molecule “(E)-4-Chloro-N'-[(5-nitrofuran-2-yl)methylene]-(1,1'-biphenyl)-4-sulfonohydrazide [2j]”, the concentration for half-maximal inhibition (IC50) in [1], in data set [2], in [3], in [4], in data set [5] and in [6] (L. major IR‐173) was > 10 µM each time. Besides, the concentration for half-maximal inhibition (IC50) in data set [7] and in [8] (n = 3) was > 10 µM each time.
As for “(E)-4-Methoxy-N'-[(5-nitrofuran-2-yl)methylene]-(1,1'-biphenyl)-4-sulfonohydrazide [2k]”, the concentration for half-maximal inhibition (IC50) in data set [1], in data set [2], in data set [3], in data set [4], in [5] and in data set [6] (L. major IR‐173) was > 10 µM throughout. Further, the concentration for half-maximal inhibition (IC50) in data set [7] and in [8] (n = 3) was > 10 µM in each case.

Usually melting point stands for the temperature of the solid-liquid transition. The term IC50 denotes the point on the concentration scale where inhibition reaches its midpoint.
